According to ChEMBL document CHEMBL1135940, “2-Amino-4-[3'-hydroxyphenyl]-4-hydroxybutanoic acid; a potent inhibitor of rat and recombinant human kynureninase” (Bioorg Med Chem Lett, 2002):

Experiments:
Kynureninase [1] = target: T1, Kynureninase (Homo sapiens, UniProt Q16719); experiment: Tested for binding affinity against kynureninase enzyme from human
T1 sequence (Q16719 whole entry): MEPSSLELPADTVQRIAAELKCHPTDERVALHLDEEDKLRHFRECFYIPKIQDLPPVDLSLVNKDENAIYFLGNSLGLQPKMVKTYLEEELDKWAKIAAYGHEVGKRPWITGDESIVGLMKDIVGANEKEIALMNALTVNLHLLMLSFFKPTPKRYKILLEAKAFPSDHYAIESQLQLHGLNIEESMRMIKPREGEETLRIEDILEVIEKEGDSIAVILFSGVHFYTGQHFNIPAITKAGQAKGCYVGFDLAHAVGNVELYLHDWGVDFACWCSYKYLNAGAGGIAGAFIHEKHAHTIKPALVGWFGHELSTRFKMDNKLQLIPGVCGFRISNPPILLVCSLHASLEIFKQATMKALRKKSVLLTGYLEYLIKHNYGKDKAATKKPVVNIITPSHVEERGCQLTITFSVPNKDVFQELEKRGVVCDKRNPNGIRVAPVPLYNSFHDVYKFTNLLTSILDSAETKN

Kynureninase [2] = target: T2, Kynureninase (Rattus norvegicus, UniProt P70712); experiment: Tested for binding affinity against kynureninase enzyme from rat
T2 sequence (P70712 whole entry): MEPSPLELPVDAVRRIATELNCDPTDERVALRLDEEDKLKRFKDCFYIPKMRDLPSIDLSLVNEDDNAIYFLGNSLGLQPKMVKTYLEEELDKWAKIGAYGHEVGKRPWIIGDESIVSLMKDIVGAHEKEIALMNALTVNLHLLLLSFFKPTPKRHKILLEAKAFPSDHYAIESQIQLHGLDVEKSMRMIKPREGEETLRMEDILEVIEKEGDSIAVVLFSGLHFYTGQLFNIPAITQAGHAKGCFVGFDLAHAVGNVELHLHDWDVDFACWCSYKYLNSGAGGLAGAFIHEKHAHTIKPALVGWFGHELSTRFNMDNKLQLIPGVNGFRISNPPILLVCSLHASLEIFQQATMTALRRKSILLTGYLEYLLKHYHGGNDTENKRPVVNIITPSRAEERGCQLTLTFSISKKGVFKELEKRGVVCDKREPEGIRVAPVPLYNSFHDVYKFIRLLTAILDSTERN

Work on NC(CC(O)c1cccc(O)c1)C(=O)O (configuration not stated) yielded a Ki (Kynureninase [1]) of 100 nM and a Ki (Kynureninase [2]) of 130 nM.
